Patent US10174078B2, “Keratan sulfate specific transporter molecules” (PHI PHARMA SA, priority 2014, dated 2019)
Square brackets hold non-standard residues; d marks the D form. Ends that are not written are not given here. Peptide text beside a SMILES is read from it. 3'AdT = not defined here

Legend:
[1] = estimation of in vivo stability: incubation of peptides with fetal calf serum; type: in vitro ADME; conditions: 37° C.; for degradation in fetal calf serum: 6 hr; for remaining at 6 h: fetal calf serum, read-out: stable at 6 hours
Procedure: In vivo stability was estimated by mixing peptides with fetal calf serum and incubating at 37° C. for 6 hr. Samples were tested at both 0 and 6 hours.

keratan-sulfate (KS) = test: modified ELISA: binding of peptides to plate-coated keratan-sulfate; conditions: plates coated with 1 mg/ml KS, 1 mg/ml peptide, 1 hour at room temperature
Procedure: The binding of the seven-mer peptides of the invention to KS as predicted by the models, in particular, as compared to the binding to other proteoglycans was tested using a modified ELISA protocol. ELISA plates were coated overnight with 1 mg/ml of heparin sulfate (HS), chondroitin-4-sulfate (C4S), chondroitin-6-sulfate (C6S) or keratan-sulfate (KS) in PBS. The wells were then washed with PBS and incubated for 1 hour at room temperature with 1 mg/ml of an exemplary peptide of the invention having the sequence RYKvRIK (“RYK-KS”; SEQ ID NO:7) or a standard TAT peptide. The plates were then thoroughly washed with PBS and subsequently photographed with a LUMASCOPE™ luminescent microscope. Images were then quantified using the ImageJ software (FIG. 4).
The same modified ELISA protocol was used to examine the impact of modifying the freely-selectable positions 2, 4 and 6 on the specific binding to KS.
The impact of sequence variation on specific binding was also investigated with select peptides using the above described modified ELISA.

MDCK cells = test: viability of MDCK cultures by trypan blue exclusion after 96 hour incubation with BAM-conjugate; type: cell-based; conditions: 0.5 μM to 10 μM tested
Procedure: The activity of peptides of the invention as targeting moieties was tested in vitro in preliminary studies using cells lines expressing KS. The nucleoside analog 3′ amino deoxythymidine (3′AdT) was conjugated to the amino-terminus of the peptide “RYRI” (RYKvRlK (SEQ ID NO:7)) using a single D-Glu residue (3′AdT-e-RYRI).
Confluent cultures of MDCK were passaged at 1/20 dilution and exponentionally growing cells were incubated for 96 hours with concentrations of the nucleoside analog conjugates ranging from 0.5 μM to 10 μM. Viability was subsequently assessed using trypan blue exclusion.

CC[C@H](C)[C@H](NC(=O)[C@H](CCCNC(=N)N)NC(=O)[C@H](NC(=O)[C@H](CCCCN)NC(=O)[C@H](Cc1ccc(O)cc1)NC(=O)[C@@H](N)CCCNC(=N)N)C(C)C)C(=O)N[C@@H](CCCCN)C(=O)O [RYK-KS, RYKvRIK] (HELM PEPTIDE1{R.Y.K.[dV].R.I.K}$$$$V2.0; N-terminus and C-terminus assumed)
degradation in fetal calf serum [1]: no degradation
remaining at 6 h [1]: 100%

RPKHRPK [RPKHRPK]
degradation in fetal calf serum [1]: completely degraded

RRRRRRRRR [pure arginine 9-mer]
binding to KS (keratan-sulfate (KS)): increases in binding that were likely non-selective

RKKRRQRR (Artificial TAT control peptide) [standard TAT peptide]
binding to KS (keratan-sulfate (KS)): increases in binding that were likely non-selective

RYKvFIKPRh (RYK[dV]FIKPR[dH])
binding to KS (keratan-sulfate (KS)): eliminated binding activity

D-linked conjugate: 3′AdT conjugated to the amino-terminus of the peptide RYRI (RYKvRIK) by a single D-Glu residue ({3'AdT}-[dE]RYK[dV]RIK; reading uncertain; also: printed as RYKvRIK)
concentrations with substantial effects on viability (MDCK cells): ≥ 0.5 µM

RYKvRPKYF (RYK[dV]RPKYF) [control peptide with proline at position 6]
binding to KS (keratan-sulfate (KS)): eliminated binding activity

CC[C@H](C)[C@H](N)C(=O)N[C@@H](CCCNC(=N)N)C(=O)N[C@H](C(=O)N[C@H](CCCCN)C(=O)N[C@H](C(=O)N[C@H](CCCNC(=N)N)C(=O)N[C@H](C(=O)N[C@@H](CCCCN)C(=O)O)[C@@H](C)CC)[C@@H](C)CC)[C@@H](C)CC [IRIkIrIK] (HELM PEPTIDE1{I.R.I.[dK].I.[dR].I.K}$$$$V2.0; N-terminus and C-terminus assumed)
degradation in fetal calf serum [1]: no degradation
remaining at 6 h [1]: 100%
